Test results taken from patent US12622916B2, “Use of H3K9me3 modulation for enhancing cognitive function” (THE REGENTS OF THE UNIVERSITY OF CALIFORNIA, priority 2015, dated 2026).

Tests used:
[1] = target: DNA methyltransferase DNMT1 (Homo sapiens, UniProt P26358); experiment: Inhibitory activity towards DNA methyltransferase DNMT1; assay type: biochemical
aged mice = experiment: Unsupervised learning task (USL) in aged mice; assay type: in vivo; settings: 10 mg/kg i.p.
Procedure: Unsupervised learning task: A new group of 12 aged animals were used for the unsupervised learning task. Procedures were adapted from published work. The unsupervised learning (USL) behavioral apparatus consisted of a large open field divided by walls into 4 chambers, all accessible by small entrances in each dividing wall. The animals can also access a smaller attached enclosed dark compartment by an open entrance. After 5 days of handling, animals were injected with ETP69 (10 mg/kg, i.p.) or vehicle and placed in the video-monitored USL box for thirty minutes, and the returned to the home cage. 24 hours later the animals were placed in the USL box again and euthanized immediately after. Their brains were rapidly removed, hippocampus dissected rapidly, frozen on dry ice, and stored at −80° C. until further processing
To evaluate if H3K9me3 is implicated in measures of spatial learning and to evaluate molecular endpoints, a second series of experiments was conducted with the USL task being the behavioral endpoint. The USL task is a simple behavioral paradigm in which mice are allowed to freely explore a four-compartment environment for a specified period of time. Reduction in overall activity and exploration of the test arena over this time is considered a measure of learning and short-term memory. […]

young C57Bl/6J male mice = experiment: Object location memory (OLM) task in young mice; assay type: in vivo
Procedure: Object Location Memory (OLM): Training and testing procedures were performed using a standard OLM protocol. Briefly, 22 aged mice and 18 young mice were handled for about 2-3 minutes per day for 5 days, followed by habituation to the experimental apparatus (white rectangular open field measuring 30×23×21.5 cm) for 5 min per day for 5 consecutive days before training.
18 young mice were also tested in the same OLM paradigm as described above. To determine whether the drug impacted acquisition or consolidation mechanisms, the young mice were injected with the 10 mg/kg compound or vehicle (i.p, n=6/group), either just before or right after the acquisition trial, and tested 24 hours post-acquisition. FIG. 3 is a graphical representation of the results of OLM test showing the differences in exploration between mice treated with either vehicle, or 10 mg/kg of ETP69. […] Data are mean±SEM; n=7 or 8/group.

hippocampal synaptosomes = experiment: Flow synaptometry of hippocampal synaptosomes of aged mice; assay type: in vivo; settings: 10 mg/kg i.p.
Procedure: Spine counts: In another series of experiments 10 aged mice (20-22 months) were injected with ETP69 (10 mg/kg; i.p) or vehicle (i.p) and 24 hours later the animals were euthanized and the brains were separated into two hemispheres. Right hemisphere was used for Golgi staining and the left was processed for flow synaptometry. Staining was conducted according to manufacturer's information (Golgi-Cox, Bioenna).
Flow Synaptometry: Fresh synaptosome P2 fractions were obtained from whole mouse hippocampus using our long-standing protocol. Briefly, the fractions were obtained from the hippocampus by homogenizing tissue (1:10 w/v) in ice-cold sucrose 320 mM. All the steps were carried out at 4° C.; sucrose buffer, grinder, pestle and microfuge tubes were all pre-cooled on ice. Hippocampi were rapidly dissected from a single mouse and homogenized in 320 mM sucrose (1.5 ml) containing HEPES [10 mM] and protease/phosphatase inhibitors cocktail, pH 7.4. Homogenization consisted of 6-8 manual strokes in a glass-Teflon grinder, clearance (between plunger and glass): 0.15-0.25 mm. Plunger was gently rotated during strokes while the grinder was kept on ice. The homogenate was centrifuged at 1200 g for 10 min. Supernatant (S1, containing mitochondria and synaptosomes) was transferred into two clean microfuge tubes and centrifuged at 12,000 g for 20 min. Supernatants (S2) were carefully removed using a plastic tip and vacuum. Pellets (P2, corresponding to the crude synaptosome fraction) were resuspended by gently pipetting up and down in 1.5 ml of PBS Protein concentration was determined using the BCA assay using bovine serum albumin (BSA) as standard. Before immunolabeling, all samples were adjusted to the same protein concentration using PBS as diluent. Immunolabeling for flow synaptometry analysis was performed according to a method for staining of extracellular/intracellular antigens using 200 ul of synaptosomal fractions (50-100 μg protein). Antibodies: GluR1 (extracellular) (Millipore, ABN241, DIL=1:400), p-Akt-ser473 (Cell Signaling, 4060, DIL=1:400), PSD-95 (Millipore, MAB1598, DIL=1:400), anti-rabbit IgG Alexa-488 ad anti-mouse IgG Alexa 647 (Life Science, DIL=1:400). […] Relative size and granularity was determined by forward (FSC) and side scatter (SSC) properties. […] Alexa 488 and Alexa 647 fluorochromes were detected by the FL1 and FL4 detectors, respectively. […] Ten thousand size-gated particles were collected and analyzed for each sample. […]
Next, we studied the influence of ETP69 on synapses using flow synaptometry, an innovative approach to molecularly characterize isolated synaptosomes (presynaptic terminals attached to post-synaptic dendritic spines). […] After drug treatment, hippocampal synaptosome fractions were immunostained and analyzed by flow synaptometry. […]

H3K9me3 = experiment: Histone H3K9 trimethylation level in brain tissue extracts of aged mice; assay type: in vivo
[2] = tested on: 14 DIV hippocampal neurons; experiment: PSD-95 immunoreactivity and dendritic F-actin staining in hippocampal neurons; assay type: cell-based; settings: 20 nM, 24 hours
Text: Neurons were stained with antibodies against PSD-95 (red) and MAP2 (green). Scale bars: 10 μm, top panel; 2 μm, bottom panel.
Note presence of numerous puncta marking presence of many spines. Top panel: Control, bottom panel: ETP treated neurons. Scale bar: 2 μm.

Sequence of DNA methyltransferase DNMT1 (P26358 whole entry): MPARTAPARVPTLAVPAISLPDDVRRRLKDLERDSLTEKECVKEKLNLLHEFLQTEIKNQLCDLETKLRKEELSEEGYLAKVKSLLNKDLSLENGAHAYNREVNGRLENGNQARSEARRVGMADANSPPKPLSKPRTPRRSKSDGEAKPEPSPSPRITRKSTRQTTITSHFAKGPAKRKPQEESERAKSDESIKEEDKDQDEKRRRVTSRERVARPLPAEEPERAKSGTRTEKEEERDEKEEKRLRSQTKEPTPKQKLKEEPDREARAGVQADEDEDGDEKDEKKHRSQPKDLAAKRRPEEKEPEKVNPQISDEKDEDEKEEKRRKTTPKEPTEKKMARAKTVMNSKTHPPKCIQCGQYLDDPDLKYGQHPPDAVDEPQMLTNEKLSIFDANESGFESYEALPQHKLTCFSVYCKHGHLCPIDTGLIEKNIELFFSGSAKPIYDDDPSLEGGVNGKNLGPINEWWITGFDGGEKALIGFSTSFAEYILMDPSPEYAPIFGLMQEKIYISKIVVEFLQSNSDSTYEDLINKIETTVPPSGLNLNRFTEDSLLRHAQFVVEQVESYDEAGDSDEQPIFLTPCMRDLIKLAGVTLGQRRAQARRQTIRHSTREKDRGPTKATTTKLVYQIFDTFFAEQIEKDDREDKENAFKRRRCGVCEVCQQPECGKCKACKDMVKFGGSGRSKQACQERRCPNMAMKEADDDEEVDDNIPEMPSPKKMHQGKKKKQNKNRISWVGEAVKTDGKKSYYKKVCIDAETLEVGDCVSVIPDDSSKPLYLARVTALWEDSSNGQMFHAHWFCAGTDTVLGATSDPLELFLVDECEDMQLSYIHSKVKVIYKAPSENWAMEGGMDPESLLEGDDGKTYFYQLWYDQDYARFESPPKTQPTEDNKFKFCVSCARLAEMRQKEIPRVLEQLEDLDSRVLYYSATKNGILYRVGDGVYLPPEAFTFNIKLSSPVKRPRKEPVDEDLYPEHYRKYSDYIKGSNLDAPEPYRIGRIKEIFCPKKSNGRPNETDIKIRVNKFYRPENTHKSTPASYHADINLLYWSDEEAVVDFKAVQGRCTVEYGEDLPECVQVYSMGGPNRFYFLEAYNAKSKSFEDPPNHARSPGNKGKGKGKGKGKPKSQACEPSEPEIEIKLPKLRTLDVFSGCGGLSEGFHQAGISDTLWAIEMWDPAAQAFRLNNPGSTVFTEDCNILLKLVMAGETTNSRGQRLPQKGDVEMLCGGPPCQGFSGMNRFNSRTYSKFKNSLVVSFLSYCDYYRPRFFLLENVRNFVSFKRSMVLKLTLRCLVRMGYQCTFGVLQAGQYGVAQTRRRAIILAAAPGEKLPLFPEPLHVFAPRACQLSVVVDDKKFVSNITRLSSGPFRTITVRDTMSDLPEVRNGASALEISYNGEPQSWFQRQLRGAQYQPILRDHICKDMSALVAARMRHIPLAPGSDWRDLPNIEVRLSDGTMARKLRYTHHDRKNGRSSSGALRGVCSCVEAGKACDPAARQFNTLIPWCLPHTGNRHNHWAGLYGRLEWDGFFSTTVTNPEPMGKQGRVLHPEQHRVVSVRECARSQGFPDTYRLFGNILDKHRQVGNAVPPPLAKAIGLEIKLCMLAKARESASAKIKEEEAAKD

With `CN1C(=O)[C@@]23C[C@](C)(C#N)[C@H](c4ccc5c(c4)OCO5)N2C(=O)[C@]1(C)SS3` (racemic) [ETP69, Rac-(3S,6S,7S,8aS)-6-(benzo[d][1,3]dioxol-5-yl)-2,3,7-trimethyl-1,4-dioxohexahydro-6H-3,8a-epidithiopyrrolo[1,2-a]pyrazine-7-carbonitrile] the “inhibitory activity towards DNA methyltransferase DNMT1” value [1] was “no inhibitory activity”, the “USL total distance travelled over 30 minutes, Day 1 versus Day 2” value (aged mice) was “significant decrease in total distance travelled” and the “USL habituation/exploration (distance travelled), Day 2 versus Day 1” value (aged mice; 24 hours after treatment) was “significant decrease in habituation/exploration”. The “OLM acquisition phase: group differences” value (young C57Bl/6J male mice; 10 mg/kg i.p.) was “no significant group differences”, the “OLM performance, pre-trial administration” value (young C57Bl/6J male mice; 10 mg/kg i.p. 30 minutes prior to acquisition phase) was “did not show any statistical differences” and the “OLM performance, post-trial administration” value (young C57Bl/6J male mice; 10 mg/kg i.p. immediately after acquisition) was “did not show any statistical differences”. For the same compound, the “PSD95 levels per particle (Mean Fluorescence of intensity)” value (hippocampal synaptosomes; 24 hours) was “No detectable changes”, the “proportion of size-gated synaptosomes expressing PSD95” value (hippocampal synaptosomes; 24 hours) was “increases the proportion of synaptosomes expressing PSD95” and the “PSD95-positive events co-expressing surface GluR1” value (hippocampal synaptosomes; versus vehicle-treated controls) was “increase”. For the same compound, the “proportion of events expressing both p-Akt and PSD-95” value (hippocampal synaptosomes; versus vehicle-treated mice) was “increased the proportion of events expressing both p-Akt and PSD-95”, the “H3K9me3 levels in hippocampus” value (H3K9me3; 10 mg/kg i.p., 24 hours post drug, hippocampal histone extracts) was “decreases in H3K9me3 levels” and the “H3K9me3 levels in cerebellum” value (H3K9me3; ETP69-treated versus untreated, cerebellum) was “no significant difference”. For the same compound, the PSD-95 immunoreactivity [2] was “increased PSD-95 immunoreactivity” and the “dendritic F-actin staining” value [2] was “increased dendritic F-actin staining”.
